Results on 2 compounds are retold here after US12514909B2, “Lactate-protected hypoglycemia to treat glycolysis dependent pathological conditions, in particular cancer” (priority 2018, dated 2026).

The nature of series [1]: Lactate-protected hypoglycemia (HG-HL) in anesthetized pig with extracorporeal HLa infusion. The format is in vivo. On the procedure:
Then, after hyperlactatemia was established, an insulin bolus and continuous infusion of insulin were titrated to achieve a [Glu] of between 1.3 and 1.7 mmol/L (25 to 30 mg/dL). Once the HG (1.5 mmol/L) HL(8 mmol/L) state was achieved, this was maintained for 4 h. Then normoglycemia was allowed to return.
This example entails achievement and sustaining [Glu] at ˜1.5 mmol/L for 4 hours in a pig under a [Lac] of 8 mmol/L.
The preparation started the day before the intervention at 17:00. No food was given to the pig after this time.
On the morning of the intervention the pig ate a small fatty snack combined with 500 mg of metformin. The inhibitory action of metformin on gluconeogenesis is expected to start within 3 h.
A bolus of 0.03 mg/kg medetomidine, a bolus of 4 mg/kg tiletamine-zolazepam and a bolus of 2 to 2.5 mg/kg 1% propofol were delivered intravenously. After intubation, volume-controlled ventilation was started. The respiratory rate was adjusted to target etCO2of 35 to 45 mmHg and a tidal volume of 8 to 10 ml/kg. The tidal volume was later adjusted when required on etCO2, pCO2 and pH. Then a 2-lumen dialysis catheter was surgically placed into the internal jugular vein. An unfractionated heparin bolus of 5000 IU (200 IU/kg) was administered and CVVH was initiated with unfractionated heparin (400 IU/ml) at 1 ml/h, titrated to an activated clotting time (ACT) of 250 to 300 seconds.
Counter-response inhibition was achieved by subsequent intravenous delivery of labetalol (5 mg/ml) at 3 ml/h titrated to a relative heart rate reduction of 10/m, and an intravenous bolus of 25 μg octreotide (10 μg/ml), then the octreotide continuous infusion was proportionally adjusted to keep [Glu] in the desired hypoglycemic range.
Depending on the subsequent [Glu], insulin infusion rates were varied between 0 to 60 U/h. If necessary, an additional bolus dose of insulin was given at least 30 minutes after the initial delivery using the same criteria as described before.
Once both a [Glu] of 1.3 to 1.7 and a [Lac] of 8 to 10 mmol/L was reached, this HG(1.5)HL(8) state was maintained for 4 hours using the clamping technique. Approximately halfway during the HG(1.5)HL(8)-phase the octreotide infusion was stopped as the T1/2 of octreotide is longer than T^1/2 of insulin and because sustained suppression of the hypoglycemic counter response by octreotide might prolong the duration of glucose 50% support during the normoglycemia restoration phase.
During the HG-HL phase, sliding scale adjustments of insulin and glucose 50% pumps were executed.
The glucose 50% infusion rate was adjusted and eventually tapered to zero until stable normoglycemia was achieved.

For series [2] the following is noted: cited from earlier work.

Structures are written as SMILES.

Turning to `CC(O)C(=O)O` (centres unmarked) [HLa, lactic acid], in series [1] (30 kg pig, 40% HLa via veno-venous extracorporeal circuit, [Lac] 8 mmol/L, [Glu] ~1.5 mmol/L for 4 h, with insulin, glucose 50%, octreotide, labetalol, metformin), the “arterial pH and sodium levels throughout the experiment” value was “maintained within the desired range”. Also, the “hemodynamic instabilities, electrocardiographic or rhythm disturbances” value in series [1] (30 kg pig, HG(1.5)HL(8) state for 4 h) is given as “no hemodynamic instabilities, electrocardiographic or rhythm disturbances were observed”. In addition, the “time after end of the HG-HL-phase until normoglycemia without exogenous glucose or lactate support” value in series [1] (30 kg pig, after 4 h HG(1.5)HL(8)) is 90 min. The “metabolic alkalosis or hypernatremia on administration of high doses” value in series [1] (high doses of HLa instead of NaLa) is recorded as “did not lead to metabolic alkalosis or hypernatremia”.

As to `CC(O)C(=O)[O-].[Na+]` (centres unmarked) [sodium lactate], in series [2], the “side effects of intravenous administration of large amounts” value is “systemic metabolic alkalosis and hypernatremia”.
